Source: patent publication US8476265B2, “Compounds-801” (AstraZeneca AB, priority 2010, dated 2013)
Structures can show the parent of a compound that is named as a salt.

Assays:
Adrenergic β2 = biological target: T1, Adrenergic β2 (Homo sapiens, UniProt P07550); assay: Adrenergic β2 mediated cAMP production in H292 cells (AlphaScreen), concentration response; type: cell-based; details: for EC50: 60 min, 300 μM rolipram, read-out: β2 pEC50 (converted); for β2 Intrinsic Activity: fraction relative to the maximum activity determined for formoterol
T1 construct: Adherent H292 cells are removed from tissue culture flasks by treatment with Accutase™ cell detachment solution; endogenous in cells; host or cells: H292 cells
Procedure: Assay for Adrenergic 132 Mediated cAMP Production
H292 cells are grown in 225 cm2 flasks incubator at 37° C., 5% CO2 in RPMI medium containing 10% (v/v) FBS (foetal bovine serum) and 2 mM L-glutamine.
Adherent H292 cells re removed from tissue culture flasks by treatment with Accutase™ cell detachment solution for 15 minutes. Flasks are incubated for 15 minutes in a humidified incubator at 37° C., 5% CO2. Detached cells are re-suspended in RPMI media (containing 10% (v/v) FBS and 2 mM L-glutamine) at 0.1×10^6 cells per mL. 10000 cells in 100 μl, are added to each well of a tissue-culture-treated 96-well plate and the cells incubated overnight in a humidified incubator at 37° C., 5% CO2. The culture media is removed and cells are washed twice with 100 μL assay buffer and replaced with 50 μl assay buffer (HBSS solution containing 10 mM HEPES pH7.4 and 5 mM glucose). Cells are rested at room temperature for 20 minutes after which time 25 μl of rolipram (1.2 mM made up in assay buffer containing 2.4% (v/v) dimethylsulphoxide) is added. Cells are incubated with rolipram for 10 minutes after which time test compounds are added and the cells are incubated for 60 minutes at room temperature. The final rolipram concentration in the assay is 300 μM and final vehicle concentration is 1% (v/v) dimethylsulphoxide. The reaction is stopped by removing supernatants, washing once with 100 μL assay buffer and replacing with 50 μL lysis buffer. The cell monolayer is frozen at −80° C. for 30 minutes (or overnight).
AlphaScreen™ cAMP detection
The concentration of cAMP (cyclic adenosine monophosphate) in the cell lysate is determined using AlphaScreen™ methodology. The frozen cell plate is thawed for 20 minutes on a plate shaker then 10 μL of the cell lysate is transferred to a 96-well white plate. 40 μL of mixed AlphaScreen™ detection beads pre-incubated with biotinylated cAMP, is added to each well and the plate incubated at room temperature for 3 hours in the dark. The AlphaScreen™ signal is measured using an EnVision spectrophotometer (Perkin-Elmer Inc.) with the recommended manufacturer's settings. cAMP concentrations are determined by reference to a calibration curve determined in the same experiment using standard cAMP concentrations. Concentration response curves for agonists are constructed and data is fitted to a four parameter logistic equation to determine both the pEC50 and Intrinsic Activity. Intrinsic Activity is expressed as a fraction relative to the maximum activity determined for formoterol in each experiment.

[1] = biological target: T2, human muscarinic acetylcholine M3 receptor (Homo sapiens, UniProt P20309); assay: Muscarinic 3 receptor binding assay ([3H]NMS competition, SPA), pIC50; details: [3H]NMS 0.1 nM, CHO-K1 cell membranes expressing human M3 receptor
T2 construct: expressed in transfected cells; host or cells: CHO-K1 (Chinese Hamster Ovary) cell membranes
Procedure: Muscarinic 3 Receptor Binding Assay
The affinity (pIC50) of compounds binding to the M3 receptor is determined by competition binding of [^3H]N-methyl scopolamine (NMS) to CHO-K1 (Chinese Hamster Ovary) cell membranes expressing the human muscarinic acetylcholine M3 receptor (M3-ACh) in a scintillation proximity assay (SPA) format.
SPA beads are precoated with membranes and then incubated at 2 mg of beads per well with serial dilutions of compounds of the invention, [^3H]NMS at 0.1 nM, quarter Kd (experimentally determined dissociation constant) and assay buffer (20 mM HEPES pH 7.4 containing 5 mM MgCl2 and 0.1% (w/v) bovine serum albumin). The assay is conducted in a final volume of 200 μL, in the presence of 1% (v/v) dimethyl sulphoxide (DMSO). Total binding of [^3H]NMS is determined in the absence of competing compound and non-specific binding of [^3H]NMS is determined in the presence of 1 μM atropine. The plates are incubated for 16 hours at room temperature and then read on Wallac Microbeta™ using a normalised ^3H protocol. The pIC50, defined as the negative logarithm of the molar concentration of compound required for 50% reduction in specific [^3H]-NMS binding, is determined.

T1 sequence (P07550 whole entry): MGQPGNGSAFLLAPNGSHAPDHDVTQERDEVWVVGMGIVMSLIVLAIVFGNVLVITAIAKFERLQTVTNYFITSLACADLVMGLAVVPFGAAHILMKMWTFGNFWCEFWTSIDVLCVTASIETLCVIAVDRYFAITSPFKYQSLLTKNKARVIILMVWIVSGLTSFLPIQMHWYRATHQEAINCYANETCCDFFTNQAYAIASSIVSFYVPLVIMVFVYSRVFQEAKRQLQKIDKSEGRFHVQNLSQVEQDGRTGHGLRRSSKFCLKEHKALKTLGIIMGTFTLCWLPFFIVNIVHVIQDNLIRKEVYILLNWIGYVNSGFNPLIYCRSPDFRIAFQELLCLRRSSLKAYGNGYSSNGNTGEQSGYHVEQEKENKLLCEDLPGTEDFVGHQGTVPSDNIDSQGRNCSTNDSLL
T2 sequence (P20309 whole entry): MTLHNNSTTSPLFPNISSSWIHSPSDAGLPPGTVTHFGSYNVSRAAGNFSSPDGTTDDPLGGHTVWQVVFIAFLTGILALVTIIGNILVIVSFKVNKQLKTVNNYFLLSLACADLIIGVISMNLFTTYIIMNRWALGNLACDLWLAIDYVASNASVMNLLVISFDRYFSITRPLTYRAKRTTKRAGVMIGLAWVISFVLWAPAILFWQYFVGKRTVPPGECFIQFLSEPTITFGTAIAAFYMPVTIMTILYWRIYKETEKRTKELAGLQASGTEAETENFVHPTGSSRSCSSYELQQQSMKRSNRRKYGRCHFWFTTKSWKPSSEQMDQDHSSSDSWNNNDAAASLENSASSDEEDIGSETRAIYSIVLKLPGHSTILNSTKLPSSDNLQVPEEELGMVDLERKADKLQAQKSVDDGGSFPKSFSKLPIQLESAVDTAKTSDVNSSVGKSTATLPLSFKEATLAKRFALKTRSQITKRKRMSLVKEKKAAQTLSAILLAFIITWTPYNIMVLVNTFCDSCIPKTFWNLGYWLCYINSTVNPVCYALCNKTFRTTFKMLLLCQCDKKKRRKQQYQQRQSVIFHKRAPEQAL

SMILES | EC50 (Adrenergic β2) [nM] | β2 Intrinsic Activity (Adrenergic β2) | IC50 [1] [nM]
CC(C)c1nc(C(=O)N2CCOC3(CCN(CCc4cc(CCOCCC(=O)N(CCNCCc5ccc(O)c6c5OCC(=O)N6)C5CCCCC5)cs4)CC3)C2)cs1 [Example 63, N-Cyclohexyl-N-(2-(2-(5-hydroxy-3-oxo-3,4-dihydro-2H-benzo[b][1,4]oxazin-8-yl)ethylamino)ethyl)-3-(2-(5-(2-(4-(2-isopropylthiazole-4-carbonyl)-1-oxa-4,9-diazaspiro[5.5]undecan-9-yl)ethyl)thiophen-3-yl)ethoxy)propanamide ditrifluoroacetate] | 158 | 1.1 | 2
CC(C)(C)c1nc(C(=O)N2CCOC3(CCN(Cc4cccc(CCOCCC(=O)N(CCNCCc5ccc(O)c6c5OCC(=O)N6)C5CCCCC5)c4)CC3)C2)cs1 [Example 86, 3-(3-((4-(2-tert-Butylthiazole-4-carbonyl)-1-oxa-4,9-diazaspiro[5.5]undecan-9-yl)methyl)phenethoxy)-N-cyclohcxyl-N-(2-(2-(5-hydroxy-3-oxo-3,4-dihydro-2H-benzo[b][1,4]oxazin-8-yl)ethylamino)ethyl)propanamide] | 158 | 1.0 | 1.58
CC(C)c1nc(C(=O)N2CCOC3(CCN(Cc4cccc(SCCCOCCC(=O)N(CCNCCc5ccc(O)c6c5OCC(=O)N6)C5CCCC5)c4)CC3)C2)cs1 [Example 54, N-Cyclopentyl-N-(2-(2-(5-hydroxy-3-oxo-3,4-dihydro-2H-benzo[b][1,4]oxazin-8-yl)ethylamino)ethyl)-3-(3-(3-((4-(2-isopropylthiazole-4-carbonyl)-1-oxa-4,9-diazaspiro[5.5]undecan-9-yl)methyl)phenylthio)propoxy)propanamide ditrifluoroacetate] | 100 | 0.9 | 0.1
CCc1nc(C(=O)N2CCOC3(CCN(Cc4cccc(CCOCCC(=O)N(CC)CCNCCc5ccc(O)c6c5OCC(=O)N6)c4Cl)CC3)C2)cs1 [Example 30, 3-(2-Chloro-3-((4-(2-ethylthiazole-4-carbonyl)-1-oxa-4,9-diazaspiro[5.5]undecan-9-yl)methyl)phenethoxy)-N-ethyl-N-(2-(2-(5-hydroxy-3-oxo-3,4-dihydro-2H-benzo[b][1,4]oxazin-8-yl)ethylamino)ethyl)propanamide ditrifluoroacetate] | 7.94 | 0.8 | 0.316
CCN(CCNCCc1ccc(O)c2[nH]c(=O)sc12)C(=O)CCOCCc1cccc(CN2CCC3(CC2)CN(C(=O)c2csc(C(C)C)n2)CCO3)c1Cl [Example 28, 3-(2-Chloro-3-((4-(2-isopropylthiazole-4-carbonyl)-1-oxa-4,9-diazaspiro[5.5]undecan-9-yl)methyl)phenethoxy)-N-ethyl-N-(2-(2-(4-hydroxy-2-Oxo-2,3-dihydrobenzo[d]thiazol-7-yl)ethylamino)ethyl)propanamide ditrifluoroacetate] | 12.6 | 0.8 | 2
CCCC[C@@H](C)N(CCNCCc1ccc(O)c2c1OCC(=O)N2)C(=O)CCOCCc1cccc(CN2CCC3(CC2)CN(C(=O)c2csc(C(C)C)n2)CCO3)c1F [Example 18, (R)-3-(2-Fluoro-3-((4-(2-isopropylthiazole-4-carbonyl)-1-oxa-4,9-diazaspiro[5.5]undecan-9-yl)methyl)phenethoxy)-N-(hexan-2-yl)-N-(2-(2-(5-hydroxy-3-oxo-3,4-dihydro-2H-benzo[b][1,4]oxazin-8-yl)ethylamino)ethyl)propanamide ditrifluoroacetate] | 20 | 1.0 | 0.398
CCN(CCNCCc1ccc(O)c2[nH]c(=O)sc12)C(=O)CCOCCc1cccc(CN2CCC3(CC2)CN(C(=O)c2csc(C(C)C)n2)CCO3)c1F [Example 10, N-Ethyl-3-(2-fluoro-3-((4-(2-isopropylthiazole-4-carbonyl)-1-oxa-4,9-diazaspiro[5.5]undecan-9-yl)methyl)phenethoxy)-N-(2-(2-(4-hydroxy-2-oxo-2,3-dihydrobenzo[d]thiazol-7-yl)ethylamino)ethyl)propanamide ditrifluoroacetate] | 31.6 | 0.8 | 0.631
CCN(CCNCCc1ccc(O)c2[nH]c(=O)sc12)C(=O)CCOCCc1cc(CCN2CCC3(CC2)CN(C(=O)c2csc(C(C)C)n2)CCO3)cs1 [Example 78, N-Ethyl-N-(2-(2-(4-hydroxy-2-oxo-2,3-dihydrobenzo[d]thiazol-7-yl)ethylamino)ethyl)-3-(2-(4-(2-(4-(2-isopropylthiazole-4-carbonyl)-1-oxa-4,9-diazaspiro[5.5]undecan-9-yl)ethyl)thiophen-2-yl)ethoxy)propanamide ditrifluoroacetate] | 12.6 | 1.0 | 2.51
CCN(CCNCCc1ccc(O)c2c1OCC(=O)N2)C(=O)CCOCCc1cccc(CN2CCC3(CC2)CN(C(=O)c2csc(C(C)C)c2)CCO3)c1F [Example 74, N-Ethyl-3-(2-fluoro-3-((4-(5-isopropylthiophene-3-carbonyl)-1-oxa-4,9-diazaspiro[5.5]undecan-9-yl)methyl)phenethoxy)-N-(2-(2-(5-hydroxy-3-oxo-3,4-dihydro-2H-benzo[b][1,4]oxazin-8-yl)ethylamino)ethyl)propanamide ditrifluoroacetate] | 100 | 0.7 | 0.2
CC(C)c1nc(C(=O)N2CCOC3(CCN(CCc4ccc(CCOCCC(=O)N(CCNCCc5ccc(O)c6c5OCC(=O)N6)C5CCCCC5)cc4)CC3)C2)cs1 [Example 2, N-Cyclohexyl-N-(2-(2-(5-hydroxy-3-oxo-3,4-dihydro-2H-benzo[b][1,4]oxazin-8-yl)ethylamino)ethyl)-3-(4-(2-(4-(2-Isopropylthiazole-4-carbonyl)-1-oxa-4,9-diazaspiro[5.5]undecan-9-371)ethyl)phenethoxy)propanamide ditrifluoroacetate] | 31.6 | 0.9 | 1
CCCCN(CCNCCc1ccc(O)c2c1OCC(=O)N2)C(=O)CCOCCc1cccc(CCN2CCC3(CC2)CN(C(=O)c2csc(C(C)C)n2)CCO3)c1 [Example 34a, N-Butyl-N-(2-(2-(5-hydroxy-3-oxo-3,4-dihydro-2H-benzo[b][1,4]oxazin-8-yl)ethylamino)ethyl)-3-(3-(2-(4-(2-isopropylthiazole-4-carbonyl)-1-oxa-4,9-diazaspiro[5.5]undecan-9-yl)ethyl)phenethoxy)propanamide Sulphate salt Modification A] | 15.8 | – | 0.631
CCCCN(CCNCCc1ccc(O)c2c1OCC(=O)N2)C(=O)CCOCCc1cccc(CCN2CCC3(CC2)CN(C(=O)c2csc(C(C)C)n2)CCO3)c1 [Example 34, N-Butyl-N-(2-(2-(5-hydroxy-3-oxo-3,4-dihydro-2H-benzo[b][1,4]oxazin-8-yl)ethylamino)ethyl)-3-(3-(2-(4-(2-isopropylthiazole-4-carbonyl)-1-oxa-4,9-diazaspiro[5.5]undecan-9-yl)ethyl)phenethoxy)propanamide ditrifluoroacetate] | 10 | 1.0 | 1
